Patent publication US12371454B2, “Cyclic peptide compound having Kras inhibitory action” (priority 2019, dated 2025)
Starred links: 1 amine or outer side, 2 acyl side, 3 side chain; linkers in the order of their positions; H or OH if unused. Positions of bridges follow the written chain, without caps; N, C: chain ends. Non-standard residues stand in square brackets, D forms with d. Residues, ends and D or L forms follow the SMILES beside them. *: point of attachment. hPhe(3-Cl-4-CF3) = N[C@@H](CCc1ccc(C(F)(F)F)c(Cl)c1)C(=O)O; hPhe(3-F,4-CF3) = N[C@@H](CCc1ccc(C(F)(F)F)c(F)c1)C(=O)O; X75 = O=C([C@H](CCc1ccc2c(c1)OC(F)(F)O2)N[*:1])[*:2]; NMePhe(4-CF3) = CN[C@@H](Cc1ccc(C(F)(F)F)cc1)C(=O)O; X68 = O=C([C@H](CCc1ccc(OC(F)F)c(F)c1)N[*:1])[*:2]; X16 = Cn1ccc2ccc(CC[C@H](N[*:1])C(=O)[*:2])cc21; 3Oxa8azabicyclo(3.2.1)octane = C1CC2COCC1N2*; NEtPhe(4-Me) = CCN[C@@H](Cc1ccc(C)cc1)C(=O)O; NMePhe(4-Cl) = CN[C@@H](Cc1ccc(Cl)cc1)C(=O)O; NMePhe(4-Me) = CN[C@@H](Cc1ccc(C)cc1)C(=O)O; NMedβ3hAla = C[C@H](CC(=O)[*:2])N(C)[*:1]; NMeAla(cPent) = CN[C@@H](CC1CCCC1)C(=O)O; NMeGly(cPent) = CN[C@H](C(=O)O)C1CCCC1; NMeCha = CN[C@@H](CC1CCCCC1)C(=O)O; cisHyp = O=C(O)[C@@H]1C[C@H](O)CN1; NMehLeu = CN[C@@H](CCC(C)C)C(=O)O; Hyp = O=C(O)[C@@H]1C[C@@H](O)CN1; NMeChg = CN[C@H](C(=O)O)C1CCCCC1; NMeI = CC[C@H](C)[C@H](NC)C(=O)O; NMeD = CN[C@@H](CC(=O)O)C(=O)O; NMeL = CN[C@@H](CC(C)C)C(=O)O; NMeV = CN[C@H](C(=O)O)C(C)C; d(β3hA) = C[C@@H](N)CC(=O)O; Azetidin(1-yl) = C1CN(*)C1; NMeS = CN[C@@H](CO)C(=O)O; NMeA = CN[C@@H](C)C(=O)O; Piperidide = C1CCN(*)CC1; Ac5c = NC1(C(=O)O)CCCC1; Aze = O=C(O)[C@@H]1CCN1; Cyclobutyl = C1CC(*)C1; Aib = CC(C)(N)C(=O)O; X30 = COc1cccc(C*)c1; X27 = Clc1ccccc1C*; Sar = CNCC(=O)O; Propyl = CCC*

system: Human pancreatic cancer cell line AsPC-1; assay: Measurement of AsPC-1 cell growth inhibition (AsPC-1 CGI); assay type: cell-based; conditions: 96 h
In short: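 AsPC-1 cells in 15% FBS RPMI-1640 were exposed to test compound for 96 hours at 37° C, with CellTiter-Glo as endpoint.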

Row | SMILES | IC50 [nM]
1 | CC[C@H](C)[C@@H]1NC(=O)[C@H](CC(C)C)N(C)C(=O)C[C@@H](C(=O)N2C3CCC2COC3)N(C)C(=O)[C@H](C2CCCC2)N(C)C(=O)C2(CCCC2)NC(=O)[C@@H]2CCCN2C(=O)[C@H](CCc2ccc(C(F)(F)F)c(Cl)c2)NC(=O)CN(C)C(=O)[C@H](Cc2ccc(C)cc2)N(CC)C(=O)[C@@H]2CCN2C(=O)[C@H](C)N(C)C1=O [Compound 1236] ([NMeL]I[NMeA][Aze][NEtPhe(4-Me)][Sar][hPhe(3-Cl-4-CF3)]P[Ac5c][NMeGly(cPent)][NMeD]-{3Oxa8azabicyclo(3.2.1)octane}; lactam N-11) | 20 to 50
2 | CC(C)C[C@H]1C(=O)N[C@@H](C(C)C)C(=O)N(C)[C@@H](C)C(=O)N2CC[C@H]2C(=O)N(C)[C@@H](CC2CCCCC2)C(=O)N(C)CC(=O)N[C@@H](CCc2ccc(C(F)(F)F)c(Cl)c2)C(=O)N2CCC[C@H]2C(=O)NC2(CCCC2)C(=O)N(C)[C@@H](C(C)C)C(=O)N(C)[C@H](C(=O)N2CCCCC2)CC(=O)N1C [Compound 1791] ([NMeL]V[NMeA][Aze][NMeCha][Sar][hPhe(3-Cl-4-CF3)]P[Ac5c][NMeV][NMeD]-Piperidide; lactam N-11) | 100 to 500
3 | CC[C@H](C)[C@@H]1NC(=O)[C@H](C(C)C)N(C)C(=O)C[C@@H](C)NC(=O)[C@H](CC(C)C)N(C)C(=O)C(C)(C)NC(=O)[C@H](CC(C)C)N(C)C(=O)[C@H](CCc2ccc(C(F)(F)F)c(Cl)c2)NC(=O)CN(C)C(=O)[C@H](Cc2ccc(Cl)cc2)N(C)C(=O)CN(C)C(=O)CN(C)C1=O [Compound 740] (cyclo([Aib][NMeL][d(β3hA)][NMeV]I[Sar][Sar][NMePhe(4-Cl)][Sar][hPhe(3-Cl-4-CF3)][NMeL])) | 100 to 500
4 | CC[C@H](C)[C@@H]1NC(=O)[C@H](CC(C)C)N(C)C(=O)C[C@@H](C(=O)N2CCCCC2)N(C)C(=O)[C@H](C2CCCC2)N(C)C(=O)C2(CCCC2)NC(=O)[C@@H]2CCCN2C(=O)[C@H](CCc2ccc3ccn(C)c3c2)NC(=O)CN(C)C(=O)[C@H](CC2CCCCC2)N(C)C(=O)[C@@H]2CCN2C(=O)[C@H](C)N(C)C1=O [Compound 2065] ([NMeL]I[NMeA][Aze][NMeCha][Sar][X16]P[Ac5c][NMeGly(cPent)][NMeD]-Piperidide; lactam N-11) | 100 to 500
5 | CC[C@H](C)[C@@H]1NC(=O)[C@H](CC2CCCCC2)N(C)C(=O)C[C@@H](C(=O)N2CCCCC2)N(C)C(=O)[C@H](C(C)C)N(C)C(=O)C2(CCCC2)NC(=O)[C@@H]2CCCN2C(=O)[C@H](CCc2ccc(C(F)(F)F)c(Cl)c2)NC(=O)CN(C)C(=O)[C@H](CC2CCCCC2)N(C)C(=O)[C@@H]2CCN2C(=O)[C@H](C)N(C)C1=O [Compound 572] ([NMeCha]I[NMeA][Aze][NMeCha][Sar][hPhe(3-Cl-4-CF3)]P[Ac5c][NMeV][NMeD]-Piperidide; lactam N-11) | 100 to 500
6 | CC[C@H](C)[C@@H]1NC(=O)[C@H](CC2CCCC2)N(C)C(=O)C[C@@H](C(=O)N2CCC2)N(C)C(=O)[C@H](C2CCCC2)N(C)C(=O)C2(CCCC2)NC(=O)[C@@H]2CCCN2C(=O)[C@H](CCc2ccc(C(F)(F)F)c(Cl)c2)NC(=O)CN(C)C(=O)[C@H](CC2CCCCC2)N(C)C(=O)[C@@H]2CCN2C(=O)[C@H](C)NC1=O [Compound 921] ([NMeAla(cPent)]IA[Aze][NMeCha][Sar][hPhe(3-Cl-4-CF3)]P[Ac5c][NMeGly(cPent)][NMeD]-{Azetidin(1-yl)}; lactam N-11) | 20 to 50
7 | CCCOC[C@H]1C(=O)N(C)CC(=O)N[C@@H](CCc2ccc(C(F)(F)F)c(Cl)c2)C(=O)N2CCC[C@H]2C(=O)NC2(CCCC2)C(=O)N(C)[C@@H](C2CCCC2)C(=O)N(C)[C@H](C)CC(=O)N(C)[C@@H](CC(C)C)C(=O)N[C@@H]([C@@H](C)CC)C(=O)N(C)[C@@H](C)C(=O)N2CC[C@H]2C(=O)N1C [Compound 366] (cyclo([Ac5c][NMeGly(cPent)][NMedβ3hAla][NMeL]I[NMeA][Aze][NMeS](Propyl)[Sar][hPhe(3-Cl-4-CF3)]P)) | 20 to 50
8 | CC[C@H](C)[C@@H]1NC(=O)[C@H](CC(C)C)N(C)C(=O)C[C@@H](C(=O)N2CCCCC2)N(C)C(=O)[C@H](C2CCCC2)N(C)C(=O)C2(CCCC2)NC(=O)[C@@H]2CCCN2C(=O)[C@H](CCc2ccc(OC(F)F)c(F)c2)NC(=O)CN(C)C(=O)[C@H](CC2CCCCC2)N(C)C(=O)[C@@H]2CCN2C(=O)[C@H](C)N(C)C1=O [Compound 2076] ([NMeL]I[NMeA][Aze][NMeCha][Sar][X68]P[Ac5c][NMeGly(cPent)][NMeD]-Piperidide; lactam N-11) | 50 to 100
9 | CCCOC[C@H]1C(=O)N(C)CC(=O)N[C@@H](CCc2ccc(C(F)(F)F)c(Cl)c2)C(=O)N2CCC[C@H]2C(=O)NC2(CCCC2)C(=O)N(C)[C@@H](C2CCCC2)C(=O)N(C)[C@H](C(=O)N2C3CCC2COC3)CC(=O)N(C)[C@@H](CCC(C)C)C(=O)N[C@@H]([C@@H](C)CC)C(=O)N[C@@H](C)C(=O)N2CC[C@H]2C(=O)N1C [Compound 1326] ([NMehLeu]IA[Aze][NMeS](Propyl)[Sar][hPhe(3-Cl-4-CF3)]P[Ac5c][NMeGly(cPent)][NMeD]-{3Oxa8azabicyclo(3.2.1)octane}; lactam N-11) | 20 to 50
10 | CC[C@H](C)[C@@H]1NC(=O)[C@H](CC(C)C)N(C)C(=O)C[C@@H](C(=O)N(C)C)N(C)C(=O)[C@H](C2CCCCC2)N(C)C(=O)C2(CCCC2)NC(=O)[C@@H]2CCCN2C(=O)[C@H](CCc2ccc(C(F)(F)F)c(Cl)c2)NC(=O)CN(C)C(=O)[C@H](Cc2ccc(C)cc2)N(C)C(=O)[C@@H]2CCN2C(=O)[C@H](C)N(C)C1=O [Compound 1685] ([NMeL]I[NMeA][Aze][NMePhe(4-Me)][Sar][hPhe(3-Cl-4-CF3)]P[Ac5c][NMeChg][NMeD]-NMe2; lactam N-11) | 20 to 50
11 | CC[C@H](C)[C@@H]1NC(=O)[C@H](CC(C)C)N(C)C(=O)C[C@@H](C(=O)N2CCCCC2)N(C)C(=O)[C@H]([C@@H](C)CC)N(C)C(=O)C2(CCCC2)NC(=O)[C@@H]2CCCN2C(=O)[C@H](CCc2ccc(C(F)(F)F)c(Cl)c2)NC(=O)CN(C)C(=O)[C@H](COC2CCC2)N(C)C(=O)[C@@H]2CCN2C(=O)[C@H](C)N(C)C1=O [Compound 885] ([NMeL]I[NMeA][Aze][NMeS](Cyclobutyl)[Sar][hPhe(3-Cl-4-CF3)]P[Ac5c][NMeI][NMeD]-Piperidide; lactam N-11) | 20 to 50
12 | CC[C@H](C)[C@@H]1NC(=O)[C@H](CC(C)C)N(C)C(=O)C[C@@H](C(=O)N2CCCCC2)N(C)C(=O)[C@H](CC(C)C)N(C)C(=O)C2(CCCC2)NC(=O)[C@@H]2C[C@@H](OCc3ccccc3Cl)CN2C(=O)[C@H](CCc2ccc(C(F)(F)F)c(F)c2)NC(=O)CN(C)C(=O)[C@H](CC2CCCCC2)N(C)C(=O)CN(C)C(=O)CN(C)C1=O [Compound 2138] ([NMeL]I[Sar][Sar][NMeCha][Sar][hPhe(3-F,4-CF3)][Hyp](X27)[Ac5c][NMeL][NMeD]-Piperidide; lactam N-11) | 100 to 500
13 | CC[C@H](C)[C@@H]1NC(=O)[C@H](CC(C)C)N(C)C(=O)C[C@@H](C(=O)N2CCCCC2)N(C)C(=O)[C@H](CC(C)C)N(C)C(=O)C2(CCCC2)NC(=O)[C@@H]2C[C@H](OCc3cccc(OC)c3)CN2C(=O)[C@H](CCc2ccc(C(F)(F)F)c(F)c2)NC(=O)CN(C)C(=O)[C@H](CC2CCCCC2)N(C)C(=O)CN(C)C(=O)CN(C)C1=O [Compound 2136] ([NMeL]I[Sar][Sar][NMeCha][Sar][hPhe(3-F,4-CF3)][cisHyp](X30)[Ac5c][NMeL][NMeD]-Piperidide; lactam N-11) | > 500
14 | CC[C@H](C)[C@@H]1NC(=O)[C@H](CC(C)C)N(C)C(=O)C[C@@H](C)NC(=O)[C@H](C2CCCC2)N(C)C(=O)C2(CCCC2)NC(=O)[C@@H]2CCCN2C(=O)[C@H](CCc2ccc(C(F)(F)F)c(Cl)c2)NC(=O)CN(C)C(=O)[C@H](Cc2ccc(C(F)(F)F)cc2)N(C)C(=O)[C@@H]2CCN2C(=O)CN(C)C1=O [Compound 1496] (cyclo([Ac5c][NMeGly(cPent)][d(β3hA)][NMeL]I[Sar][Aze][NMePhe(4-CF3)][Sar][hPhe(3-Cl-4-CF3)]P)) | 50 to 100
15 | CC[C@H](C)[C@@H]1NC(=O)[C@H](CC(C)C)N(C)C(=O)C[C@@H](C(=O)N2CCCCC2)N(C)C(=O)[C@H](CC(C)C)N(C)C(=O)C2(CCCC2)NC(=O)[C@@H]2C[C@H](O)CN2C(=O)[C@H](CCc2ccc(C(F)(F)F)c(F)c2)NC(=O)CN(C)C(=O)[C@H](CC2CCCCC2)N(C)C(=O)CN(C)C(=O)CN(C)C1=O [Compound 544, (3S,9S,18S,21S,25S,28S,34S,36S)-9-(cyclohexylmethyl)-3-[2-[3-fluoro-4-(trifluoromethyl)phenyl]ethyl]-36-hydroxy-21,28-diisobutyl-7,10,13,16,22,26,29-heptamethyl-18-[(1S)-1-methylpropyl]-25-(piperidine-1-carbonyl)spiro[1,4,7,10,13,16,19,22,26,29,32-undecazabicyclo[32.3.0]heptatriacontane-31,1′-cyclopentane]-2,5,8,11,14,17,20,23,27,30,33-undecone] ([NMeL]I[Sar][Sar][NMeCha][Sar][hPhe(3-F,4-CF3)][cisHyp][Ac5c][NMeL][NMeD]-Piperidide; lactam N-11) | 100 to 500
16 | CC[C@H](C)[C@@H]1NC(=O)[C@H](C2CCCCC2)N(C)C(=O)C[C@@H](C(=O)N2CCCCC2)N(C)C(=O)[C@H](C(C)C)N(C)C(=O)C2(CCCC2)NC(=O)[C@@H]2CCCN2C(=O)[C@H](CCc2ccc(C(F)(F)F)c(Cl)c2)NC(=O)CN(C)C(=O)[C@H](CC2CCCCC2)N(C)C(=O)[C@@H]2CCN2C(=O)[C@H](C)N(C)C1=O [Compound 58] ([NMeChg]I[NMeA][Aze][NMeCha][Sar][hPhe(3-Cl-4-CF3)]P[Ac5c][NMeV][NMeD]-Piperidide; lactam N-11) | 100 to 500
17 | CC[C@H](C)[C@@H]1NC(=O)[C@H](CC(C)C)N(C)C(=O)C[C@@H](C(=O)N2CCCCC2)N(C)C(=O)[C@H](C2CCCC2)N(C)C(=O)C2(CCCC2)NC(=O)[C@@H]2CCCN2C(=O)[C@H](CCc2ccc3c(c2)OC(F)(F)O3)NC(=O)CN(C)C(=O)[C@H](CC2CCCCC2)N(C)C(=O)[C@@H]2CCN2C(=O)[C@H](C)N(C)C1=O [Compound 2074] ([NMeL]I[NMeA][Aze][NMeCha][Sar][X75]P[Ac5c][NMeGly(cPent)][NMeD]-Piperidide; lactam N-11) | 50 to 100
